The test system of assay [1] is Eschericia coli (E. Coli) strain ATCC25922. The assay is described as follows: standard microdilution assay, minimum inhibitory concentration (MIC). The class given is cell-based. The conditions noted are these: Escherichia coli; Table 2; strain ATCC25922. How it is done:
(§1) The in vitro activity of the compounds of the present disclosure can be determined. Antimicrobial testing is typically performed to determine the minimum inhibitory concentration (MIC). Minimum inhibitory concentrations (MICs) are determined by the microdilution method in a final volume of 100 μl according to protocols outlined by The Clinical and Laboratory Standards Institute (CLSI). Performance standards for reference strains are assessed within the same experimental design to maintain quality control. See, for example, Clinical Laboratory Standards Institute: Methods for dilution antimicrobial susceptibility tests for bacteria that grow aerobically M7-A8. Approved Standard-Eighth Edition. Wayne, Pa.: CLSI; December 2008; and Clinical Laboratory Standards Institute: Performance Standards for Antimicrobial Susceptibility Testing M100-S20; Approved Standard-Twentieth Edition. Wayne, Pa.: CLSI; June 2010. The compounds of the present disclosure were tested for antimicrobial activity. The Compounds 1-149 were run against Eschericia coli (E. Coli) strain ATCC25922 and against Staphylococcus aureus (S. aureus) 11540 strain using a standard microdilution assay to determine minimum inhibitory concentrations (MICs). […] It will be recognized by one skilled in the art that the compounds can be assessed against other bacterial organisms and that the presentation of data for activity against Eschericia coli and Staphylococcus aureus are illustrative and in no way is intended to limit the scope of the present disclosure. The compounds of the present disclosure can be assayed against a range of other microorganisms depending upon the performance activity desired to be gathered. Furthermore, the “+” and “−” representation and the selection of a cutoff value of 16 micrograms/mL is also illustrative and in no way is intended to limit the scope of the present disclosure.
For orientation: In broth dilution the organism is exposed to a series of concentrations in liquid medium.

The test system of assay [2] is Staphylococcus aureus (S. aureus) 11540 strain. Described as above. Type of assay: cell-based. The conditions noted are these: Table 2, 11540 strain. How it is done: as §1

One may read the MIC as the smallest concentration in the dilution series that meets the test's criterion for growth inhibition.

Regarding `CC(=N)NCC[C@H](CO)OCc1ccc(-n2cc3cc(-c4cc(CCC[C@H](C)N)cc(Cl)c4F)[nH]c3nc2=O)cc1` [Compound 72], the minimal inhibitory concentration (MIC) in assay [1] and in assay [2] was at most 16 µg/mL each time.
Consider `C[C@H](N)CCCc1cc(Cl)c(F)c(-c2cc3cn(-c4ccc([C@H]5CC[C@@H](CCNC(=N)N)O5)cc4)c(=O)nc3[nH]2)c1` [Compound 73], for which the MIC in assay [1] and in assay [2] was at most 16 µg/mL each time.
For `C[C@H](N)CCCc1cc(Cl)c(F)c(-c2cc3cn(-c4ccc([C@H]5CC[C@H](CCNC(=N)N)O5)cc4)c(=O)nc3[nH]2)c1` [Compound 74], the MIC in assay [1] and in assay [2] was at most 16 µg/mL each time.
In the case of `C[C@H](N)CCCc1cc(Cl)c(F)c(-c2cc3cn(-c4ccc(CO[C@H](CCNC(=N)N)CNc5ccccn5)cc4)c(=O)nc3[nH]2)c1` [Compound 75], the MIC in assay [1] and in assay [2] was at most 16 µg/mL each time.
Turning to `C[C@H](N)CCCc1cc(Cl)c(F)c(-c2cc3cn(-c4ccc(CO[C@H](CCNC(=N)N)CNc5ncc[nH]5)cc4)c(=O)nc3[nH]2)c1` [Compound 76], the MIC in assay [1] and in assay [2] was at most 16 µg/mL in each case.
Take `CC1=NC[C@@H](CCNC(=N)N)N1Cc1ccc(-n2cc3cc(-c4cc(CCC[C@H](C)N)cc(Cl)c4F)[nH]c3nc2=O)cc1` [Compound 77]: the minimum inhibitory concentration (MIC) in assay [1] and in assay [2] was at most 16 µg/mL each time.
In the case of `C=C[C@H]1C[C@@H](CCNC(=N)N)O[C@H](c2ccc(-n3cc4cc(-c5cc(CCC[C@H](C)N)cc(Cl)c5F)[nH]c4nc3=O)cc2)C1` [Compound 78], the minimal inhibitory concentration (MIC) in assay [1] and in assay [2] was at most 16 µg/mL each time.
On to `C=C[C@H]1C[C@@H](CCNC(=N)N)O[C@H](c2ccc(-n3cc4cc(C5CCNC5)[nH]c4nc3=O)cc2)C1` (stereo partly drawn) [Compound 79], for which the minimal inhibitory concentration (MIC) in assay [1] and in assay [2] was over 16 µg/mL throughout.
As for `C=C[C@H]1C[C@@H](CCNC(=N)N)O[C@H](c2ccc(-n3cc4cc(C5CCN(C(=N)N)C5)[nH]c4nc3=O)cc2)C1` (stereo partly drawn) [Compound 80], the MIC in assay [1] and in assay [2] was over 16 µg/mL in each case.
Regarding `CCC(=N)NCC[C@@H]1CCC[C@@H](c2ccc(-n3cc4cc(-c5cc(CCC[C@H](C)N)cc(Cl)c5F)[nH]c4nc3=O)cc2)N1` [Compound 81], the minimum inhibitory concentration (MIC) in assay [1] and in assay [2] was at most 16 µg/mL in each case.
Turning to `CC(C)C(=N)NCC[C@@H]1CCC[C@@H](c2ccc(-n3cc4cc(-c5cc(CCC[C@H](C)N)cc(Cl)c5F)[nH]c4nc3=O)cc2)N1` [Compound 82], the MIC in assay [1] and in assay [2] was at most 16 µg/mL each time.
Turning to `C[C@H](N)CCCc1cc(Cl)c(F)c(-c2cc3cn(-c4ccc([C@@H]5CCC[C@@H](CCNC(=N)C6CC6)N5)cc4)c(=O)nc3[nH]2)c1` [Compound 83], the MIC in assay [1] and in assay [2] was at most 16 µg/mL in each case.
As for `C[C@H](N)CCCc1cc(Cl)c(F)c(-c2cc3cn(-c4ccc([C@@H]5CCC[C@@H](CCNC(=N)C6CCC6)N5)cc4)c(=O)nc3[nH]2)c1` [Compound 84], the minimal inhibitory concentration (MIC) in assay [1] and in assay [2] was at most 16 µg/mL each time.
As to `C[C@H](N)CCCc1cc(Cl)c(F)c(-c2cc3cn(-c4ccc([C@@H]5CCC[C@@H](CCNC(=N)CF)N5)cc4)c(=O)nc3[nH]2)c1` [Compound 85], the MIC in assay [1] and in assay [2] was at most 16 µg/mL in each case.
As for `C[C@H](N)CCCc1cc(Cl)c(F)c(-c2cc3cn(-c4ccc([C@@H]5CCC[C@@H](CCNC(=N)CCl)N5)cc4)c(=O)nc3[nH]2)c1` [Compound 86], the MIC in assay [1] and in assay [2] was at most 16 µg/mL each time.
Turning to `C[C@H](N)CCCc1cc(Cl)c(F)c(-c2cc3cn(-c4ccc([C@H]5CC(CCNC(=N)N)CC(CO)O5)cc4)c(=O)nc3[nH]2)c1` (stereo partly drawn) [Compound 87], the minimal inhibitory concentration (MIC) in assay [1] and in assay [2] was at most 16 µg/mL in each case.
Consider `C[C@H](N)CCCc1cc(Cl)c(F)c(-c2cc3cn(-c4ccc([C@@H]5CC(CCNC(=N)N)CC(CO)O5)cc4)c(=O)nc3[nH]2)c1` (stereo partly drawn) [Compound 88], for which the MIC in assay [1] and in assay [2] was at most 16 µg/mL throughout.
As for `C[C@H](N)CCCc1cc(Cl)c(F)c(-c2cc3cn(-c4ccc([C@@H]5C/C(=C/CNC(=N)N)CC(CO)O5)cc4)c(=O)nc3[nH]2)c1` (stereo partly drawn) [Compound 89], the minimum inhibitory concentration (MIC) in assay [1] and in assay [2] was at most 16 µg/mL in each case.
Consider `C[C@H](N)CCCc1cc(Cl)c(F)c(-c2cc3cn(-c4ccc(CN[C@H](CCNC(=N)N)CNc5cc(F)ccn5)cc4)c(=O)nc3[nH]2)c1` [Compound 91], for which the MIC in assay [1] and in assay [2] was at most 16 µg/mL throughout.
`C[C@H](N)CCCc1cc(Cl)c(F)c(-c2cc3cn(-c4ccc(N5CCOC(CCNC(=N)N)C5)cc4)c(=O)nc3[nH]2)c1` (stereo partly drawn) [Compound 92]: the minimum inhibitory concentration (MIC) in assay [1] and in assay [2] was at most 16 µg/mL each time.
Regarding `C=C[C@@H](CCNC(=N)N)OCc1ccc(-n2cc3cc(CCNC4CCNCC4)[nH]c3nc2=O)cc1` [Compound 93], the MIC in assay [1] and in assay [2] was over 16 µg/mL each time.
Take `O=c1nc2[nH]c(C3CCNC3)cc2cn1-c1ccc([C@@H]2CCC[C@@H](CCNc3ncc[nH]3)N2)cc1` (stereo partly drawn) [Compound 94]: the results for the minimum inhibitory concentration (MIC) in assay [1] and in assay [2] were at most 16 µg/mL and over 16 µg/mL, respectively.
For `O=c1nc2[nH]c(CCNC3CCNCC3)cc2cn1-c1ccc([C@@H]2CCC[C@@H](CCNc3ncc[nH]3)N2)cc1` [Compound 95] the same measures were at most 16 µg/mL and at most 16 µg/mL.
For `C[C@H](N)CCCc1cc(Cl)c(F)c(-c2cc3cn(-c4ccc([C@H]5C[C@H](CCNC(=N)N)C[C@H](CN)O5)cc4)c(=O)nc3[nH]2)c1` [Compound 96] the same measures were at most 16 µg/mL and at most 16 µg/mL.
For `CC(=N)NCC[C@@H]1C[C@H](CN)O[C@@H](c2ccc(-n3cc4cc(-c5cc(CCC[C@H](C)N)cc(Cl)c5F)[nH]c4nc3=O)cc2)C1` [Compound 97] the same measures were at most 16 µg/mL and at most 16 µg/mL.
On to `N=C(N)NCC[C@@H]1C[C@H](CN)O[C@@H](c2ccc(-n3cc4cc(C5CCNC5)[nH]c4nc3=O)cc2)C1` (stereo partly drawn) [Compound 98], for which the minimum inhibitory concentration (MIC) in assay [1] and in assay [2] was over 16 µg/mL throughout.
As to `N=C(N)NCC[C@@H]1C[C@H](CN)O[C@@H](c2ccc(-n3cc4cc(CCNC5CCNCC5)[nH]c4nc3=O)cc2)C1` [Compound 99], the minimum inhibitory concentration (MIC) was at most 16 µg/mL in assay [1] and over 16 µg/mL in assay [2].
In the case of `N=C(N)NCC[C@@H]1CCC[C@@H](c2ccc(-n3cc4cc(C5CCNC5)[nH]c4nc3=O)cc2)N1` (stereo partly drawn) [Compound 100], the minimum inhibitory concentration (MIC) in assay [1] and in assay [2] was at most 16 µg/mL in each case.
For the compound `N=C(N)NCC[C@@H]1CCC[C@@H](c2ccc(-n3cc4cc(CCNC5CCNCC5)[nH]c4nc3=O)cc2)N1` [Compound 101], the MIC in assay [1] and in assay [2] was at most 16 µg/mL in each case.
As to `O=c1nc2[nH]c(CCNC3CCNCC3)cc2cn1-c1ccc([C@@H]2CCC[C@@H](CCc3ncc[nH]3)N2)cc1` [Compound 102], the MIC in assay [1] and in assay [2] was at most 16 µg/mL in each case.
For `N=C(N)NCC[C@H](CNc1ccccn1)OCc1ccc(-n2cc3cc(C4CCNC4)[nH]c3nc2=O)cc1` (stereo partly drawn) [Compound 103], the minimum inhibitory concentration (MIC) in assay [1] and in assay [2] was over 16 µg/mL throughout.
As to `N=C(N)NCC[C@H](CNc1ncc[nH]1)OCc1ccc(-n2cc3cc(CCNC4CCNCC4)[nH]c3nc2=O)cc1` [Compound 104], the minimal inhibitory concentration (MIC) in assay [1] and in assay [2] was at most 16 µg/mL in each case.
With `N=C(N)NCC[C@H](CNc1ccccn1)OCc1ccc(-n2cc3cc(CCNC4CCNCC4)[nH]c3nc2=O)cc1` [Compound 105], the MIC in assay [1] and in assay [2] was over 16 µg/mL throughout.

The record behind these values is US10947237B2, “Antimicrobial compounds and methods of making and using the same” (BIOVERSYS AG, priority 2015, dated 2021).
